Values of other authors, collected in patent publication US20220323353A1, “BIODEGRADABLE DRUG-ELUTING EMBOLIC PARTICLES FOR DELIVERY OF THERAPEUTIC AGENTS” (Becton, Dickinson and Company, priority 2019, published 2022).

Test system: hepatocellular carcinoma
Conditions: administrated via the hepatic artery

COc1cccc2c1C(=O)c1c(O)c3c(c(O)c1C2=O)C[C@@](O)(C(=O)CO)C[C@@H]3O[C@H]1C[C@H](N)[C@H](O)[C@H](C)O1 [doxorubicin]
antitumor activity in hepatocellular carcinoma patients: antitumor effects and partial response
